# Reference: ChEMBL document CHEMBL1130260, “A strategy for the incorporation of water molecules present in a ligand binding site into a three-dimensional quantitative structure--activity relationship analysis” (J Med Chem, 1997)
# Molecular target: Glycogen phosphorylase, muscle form (Oryctolagus cuniculus) (UniProt P00489)
# Details: Muscle tissue
# Chain of Glycogen phosphorylase, muscle form (Oryctolagus cuniculus) (P00489 whole entry, looked up): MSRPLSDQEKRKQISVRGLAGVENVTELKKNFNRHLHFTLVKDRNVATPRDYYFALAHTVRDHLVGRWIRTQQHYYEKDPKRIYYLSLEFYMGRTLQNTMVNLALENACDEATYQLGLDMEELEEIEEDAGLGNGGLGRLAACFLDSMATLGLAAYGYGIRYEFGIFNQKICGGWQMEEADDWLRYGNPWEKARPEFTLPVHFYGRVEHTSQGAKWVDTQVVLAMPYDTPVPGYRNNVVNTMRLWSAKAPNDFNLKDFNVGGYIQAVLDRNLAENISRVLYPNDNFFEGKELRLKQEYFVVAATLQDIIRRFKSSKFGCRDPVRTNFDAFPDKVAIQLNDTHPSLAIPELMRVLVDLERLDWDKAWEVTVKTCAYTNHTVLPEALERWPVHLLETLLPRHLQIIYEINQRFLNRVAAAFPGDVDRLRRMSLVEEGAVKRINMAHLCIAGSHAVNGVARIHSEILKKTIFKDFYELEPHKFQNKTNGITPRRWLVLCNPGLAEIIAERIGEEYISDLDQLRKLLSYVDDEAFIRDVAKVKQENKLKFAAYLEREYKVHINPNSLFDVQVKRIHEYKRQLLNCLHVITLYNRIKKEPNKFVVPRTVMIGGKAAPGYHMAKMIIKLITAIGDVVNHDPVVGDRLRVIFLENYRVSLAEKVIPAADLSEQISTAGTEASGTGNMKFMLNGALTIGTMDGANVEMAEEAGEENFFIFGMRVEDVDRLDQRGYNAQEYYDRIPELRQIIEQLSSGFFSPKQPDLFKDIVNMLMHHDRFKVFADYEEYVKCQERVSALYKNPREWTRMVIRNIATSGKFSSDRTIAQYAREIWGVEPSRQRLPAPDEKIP
row,SMILES,pKi
1,O=C(NCC(F)(F)F)[C@H]1O[C@@H](CO)[C@@H](O)[C@H](O)[C@@H]1O,2.09
2,OC[C@@H]1O[C@@](O)(CO)[C@@H](O)[C@@H](O)[C@@H]1O,1.8
3,NNC(=O)[C@@H]1O[C@H](CO)[C@@H](O)[C@H](O)[C@H]1O (stereo in doubt; 3),2.52
4,O=C(NC1CC1)[C@H]1O[C@@H](CO)[C@@H](O)[C@H](O)[C@@H]1O,2.89
5,O=C1N[C@@]2(O[C@@H](CO)[C@@H](O)[C@H](O)[C@@H]2O)C(=O)N1O,4.41
6,CC(=O)NCC(=O)N[C@H]1O[C@H](CO)[C@@H](O)[C@H](O)[C@H]1O,3
7,N#CC[C@]1(O)O[C@H](CO)[C@@H](O)[C@H](O)[C@H]1O,2.12
8,O=C(CCl)N[C@H]1O[C@H](CO)[C@@H](O)[C@H](O)[C@H]1O,4.35
9,NNC(=O)[C@@H]1O[C@H](CO)[C@@H](O)[C@H](O)[C@H]1O (stereo in doubt; 14),3.4
10,NC(=O)C1OC(CO)C(O)C(O)C1O (stereo in doubt; 9),3.36
11,[N-]=[N+]=NC[C@@]1(O)O[C@@H](CO)[C@@H](O)[C@H](O)[C@@H]1O,2.13
12,O=C1CNC(=O)[C@@]2(N1)O[C@@H](CO)[C@@H](O)[C@H](O)[C@@H]2O,4.22
13,CC(=O)NN1C(=O)N[C@@]2(O[C@@H](CO)[C@@H](O)[C@H](O)[C@@H]2O)C1=O,3.26
14,NCC(=O)N[C@H]1O[C@@H](CO)[C@@H](O)[C@H](O)[C@@H]1O,3.43
15,NN1C(=O)N[C@@]2(O[C@@H](CO)[C@@H](O)[C@H](O)[C@@H]2O)C1=O,3.84
16,CS(=O)(=O)OC[C@]1(O)O[C@@H](CO)[C@@H](O)[C@H](O)[C@@H]1O,2.43
17,NC(=O)C1OC(CO)C(O)C(O)C1O (stereo in doubt; 2),3.43
18,CNC(=O)C1OC(CO)C(O)C(O)C1O (stereo not drawn),3.8
19,COC(=O)N[C@@H]1O[C@H](CO)[C@@H](O)[C@H](O)[C@H]1O,4.07
20,CNNC(=O)[C@H]1O[C@H](CO)[C@@H](O)[C@H](O)[C@H]1O,2.75
21,NC(=O)N[C@H]1O[C@H](CO)[C@@H](O)[C@H](O)[C@H]1O,3.85
22,COC(=O)N[C@]1(C(N)=O)O[C@H](CO)[C@@H](O)[C@H](O)[C@H]1O (stereo in doubt; 35),4.8
23,CC(=O)N[C@H]1O[C@H](CO)[C@@H](O)[C@H](O)[C@H]1O,4.5
24,COC(=O)N[C@]1(C(N)=O)O[C@H](CO)[C@@H](O)[C@H](O)[C@H]1O (stereo in doubt; 49),3.5
25,CCC(=O)N[C@H]1O[C@H](CO)[C@@H](O)[C@H](O)[C@H]1O,4.41

# More lines, now with the values ahead:
row,pKi,SMILES
1,2.82,OCC1OC(CO)C(O)C(O)C1O (stereo not drawn)
2,2.27,O=C(Nc1ccccc1)C1OC(CO)C(O)C(O)C1O (stereo not drawn)
3,2.32,CS(=O)(=O)OCC1OC(CO)C(O)C(O)C1O (stereo not drawn)
4,1.65,[N-]=[N+]=NC[C@H]1O[C@H](CO)[C@@H](O)[C@H](O)[C@H]1O
5,1.62,COC(=O)C1OC(CO)C(O)C(O)C1O (stereo in doubt; 4)
6,1.79,OC[C@H]1O[C@H](OCC2O[C@@H](O)[C@H](O)[C@@H](O)[C@@H]2O)[C@H](O)[C@@H](O)[C@H]1O (stereo partly drawn)
7,1.78,NCC1OC(CO)C(O)C(O)C1O (stereo in doubt; 19)
8,4.36,O=C(CBr)N[C@H]1O[C@@H](CO)[C@@H](O)[C@H](O)[C@@H]1O
9,2.36,O=C(Nc1ccc(O)cc1)[C@H]1O[C@@H](O)[C@@H](O)[C@H](O)[C@@H]1O
10,3,OCC1OC(S)C(O)C(O)C1O (stereo not drawn)
11,2.59,O=C(NCCO)[C@H]1O[C@@H](CO)[C@@H](O)[C@H](O)[C@@H]1O
12,1.82,[N-]=[N+]=NC[C@@H]1O[C@H](CO)[C@@H](O)[C@H](O)[C@H]1O
13,2.05,N#CC[C@@H]1O[C@H](CO)[C@@H](O)[C@H](O)[C@H]1O
14,1.68,NC(=O)CS[C@H]1O[C@H](CO)[C@@H](O)[C@H](O)[C@H]1O
15,2.55,COC(=O)C1OC(CO)C(O)C(O)C1O (stereo in doubt; 18)
16,1.72,O=C(CS[C@H]1O[C@H](CO)[C@@H](O)[C@H](O)[C@H]1O)Nc1ccc(F)cc1F
17,2.35,NCCC1OC(CO)C(O)C(O)C1O (stereo not drawn)
18,4.03,CCCC(=O)N[C@H]1O[C@H](CO)[C@@H](O)[C@H](O)[C@H]1O
19,4.09,O=C(N[C@H]1O[C@H](CO)[C@@H](O)[C@H](O)[C@H]1O)c1ccccc1
20,1.46,NCC1OC(CO)C(O)C(O)C1O (stereo in doubt; 5)
21,2.44,O=C(CS[C@H]1O[C@H](CO)[C@@H](O)[C@H](O)[C@H]1O)Nc1ccccc1
22,2.59,OC[C@@H]1O[C@H](n2cc(O[C@@H]3O[C@H](CO)[C@@H](O)[C@H](O)[C@H]3O)c3ccccc32)[C@@H](O)[C@@H](O)[C@@H]1O
23,2.7,OC[C@@H]1O[C@H](OC[C@H]2S[C@H](O)[C@H](O)[C@@H](O)[C@@H]2O)[C@@H](O)[C@@H](O)[C@@H]1O
